Experimental data from patent US20240391862A1, “(1,4,5-TRISUBSTITUTED-1H-PYRAZOL-3-YL)OXY-2-ALKOXY ALKYL ACIDS AND THEIR DERIVATIVES, THEIR SALTS AND THEIR USE AS HERBICIDAL AGENTS” (Bayer AKtiengesellschaft, priority 2021, published 2024).

What was measured:
TRZAS = assay: Post-emergence herbicidal effect and crop plant compatibility, greenhouse pot test; type: in vivo, Triticum aestivum; conditions: Triticum aestivum, 504 h, 20 g/ha, one-leaf stage, rated visually after about 3 weeks vs untreated controls, read-out: Post-emergence effect at 20 g/ha against TRZAS in %
Summary of the method: (§1)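 Greenhouse pot test: weeds and crops sown in sandy loam, sprayed post-emergence at one-leaf stage (2–3 weeks after sowing) with WP or EC formulations plus 0.5% additive at 600 l/ha water, rates 20–320 g/ha. Visual rating about 3 weeks later versus untreated controls (100% = dead, 0% = as control).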

ZEAMX [1] = assay: as above; type: in vivo, Zea mays; conditions: Zea mays, 504 h, one-leaf stage, rated visually after about 3 weeks vs untreated controls; for plant injury at 20 g/ha: read-out: Post-emergence effect at 20 g/ha against ZEAMX in %; for plant injury at 80 g/ha: read-out: Post-emergence effect at 80 g/ha against ZEAMX in %; for plant injury at 320 g/ha: read-out: Post-emergence effect at 320 g/ha against ZEAMX in %
Summary of the method: as §1

BRSNW = type: in vivo, Brassica napus; conditions: one-leaf stage, rated visually after about 3 weeks vs untreated controls
Excerpt: (§2) • ALOMY: Alopecurus myosuroides SETVI: Setaria viridis • AVEFA: Avena fatua POLCO: Fallopia convolvulus • AMARE: Amaranthus retroflexus ECHCG: Echinochloa crus-galli • LOLRJ: Lolium rigidum STEME: Stellaria media • VERPE: Veronica persica MATIN: Tripleurospermum inodorum • DIGSA: Digitaria sanguinalis ABUTH: Abutylon threophrasti • TRZAS: Triticum aestivum VIOTR: Viola tricolor • BRSNW: Brassica napus ZEAMX: Zea mays • PHBPU: Ipomoea purpurea GLXMA: Glycine max • ORYSA: Oryza sativa HORMU: Hordeum murinum
Seeds of monocotyledonous and dicotyledonous weeds and crop plants are placed in sandy loam in plastic or organic planting pots, covered with soil and cultivated in a greenhouse under controlled growth conditions. 2 to 3 weeks after sowing, the trial plants are treated at the one-leaf stage. The compounds of the invention, formulated in the form of wettable powders (WP) or as emulsion concentrates (EC), are then sprayed onto the green parts of the plants as aqueous suspension or emulsion with addition of 0.5% additive at a water application rate of 600 l/ha (converted). After the test plants have been kept in the greenhouse under optimum growth conditions for about 3 weeks, the activity of the preparations is rated visually in comparison to untreated controls. For example, 100% activity=the plants have died, 0% activity=like control plants.
Tables 20a to 38c below show the effects/crop compatibilities of selected compounds of the general formula (I) on various harmful plants at an application rate corresponding to 20 to 320 g/ha, which were obtained by the trial procedure specified above.

VIOTR = assay: Pre-emergence herbicidal effect, greenhouse pot test; type: in vivo, Viola tricolor; conditions: scored visually after about 3 weeks vs untreated controls
Excerpt: (§3) Seeds of monocotyledonous and dicotyledonous weed plants and crop plants are placed in plastic or organic planting pots and covered with soil. The compounds of the invention, formulated in the form of wettable powders (WP) or as emulsion concentrates (EC), are then applied to the surface of the covering soil as aqueous suspension or emulsion with addition of 0.5% additive at a water application rate equivalent to 600 l/ha. After the treatment, the pots are placed in a greenhouse and kept under good growth conditions for the trial plants. After about 3 weeks, the effect of the preparations is scored visually in comparison with untreated controls as percentages. For example, 100% activity=the plants have died, 0% activity=like control plants.
(§4) Tables 1a to 19c below show the effects/crop compatibilities of selected compounds of the general formula (I) on various harmful plants at an application rate corresponding to 20 to 320 g/ha, which were obtained by the trial procedure specified above.
as §2

KCHSC = assay: as above; type: in vivo; conditions: scored visually after about 3 weeks vs untreated controls
Excerpt: as §3, with “control plants. Tables 1a to 19c below show the effects/crop compatibilities of selected compounds of the general formula (I) on various harmful plants at an application rate corresponding to 20 to 320 g/ha, which were obtained by the trial procedure specified above.” for “control plants.”

SETVI = assay: as above; type: in vivo, Setaria viridis; conditions: scored visually after about 3 weeks vs untreated controls; for pest or weed control at 320 g/ha: Setaria viridis, 504 h, read-out: Pre-emergence effect at 320 g/ha against SETVI in %
Excerpt: as §3, §4, §2

POLCO = assay: as above; type: in vivo, Fallopia convolvulus; conditions: scored visually after about 3 weeks vs untreated controls; for pest or weed control at 320 g/ha: Fallopia convolvulus, 504 h, read-out: Pre-emergence effect at 320 g/ha against POLCO in %
Excerpt: as §3, §4, §2

ABUTH = assay: as above; type: in vivo, Abutilon theophrasti; conditions: scored visually after about 3 weeks vs untreated controls
Excerpt: as §3, §4, §2

ZEAMX [2] = assay: Pre-emergence herbicidal effect and crop plant compatibility, greenhouse pot test; type: in vivo, Zea mays; conditions: scored visually after about 3 weeks vs untreated controls
Excerpt: as §3, §4, §2

LOLRI = assay: Pre-emergence herbicidal effect, greenhouse pot test; type: in vivo, Lolium rigidum; conditions: scored visually after about 3 weeks vs untreated controls
Excerpt: as §3, §4, §2

PHBPU = assay: as above; type: in vivo, Ipomoea purpurea; conditions: scored visually after about 3 weeks vs untreated controls
Excerpt: as §3, §4, §2

AVEFA = assay: as above; type: in vivo, Avena fatua; conditions: scored visually after about 3 weeks vs untreated controls
Excerpt: as §3, §4, §2

AMARE = assay: as above; type: in vivo, Amaranthus retroflexus; conditions: scored visually after about 3 weeks vs untreated controls; for pest or weed control at 320 g/ha: Amaranthus retroflexus, 504 h, read-out: Pre-emergence effect at 320 g/ha against AMARE in %
Excerpt: as §3, §4, §2

ALOMY = assay: as above; type: in vivo, Alopecurus myosuroides; conditions: scored visually after about 3 weeks vs untreated controls
Excerpt: as §3, §4, §2

MATIN = assay: as above; type: in vivo, Tripleurospermum inodorum; conditions: scored visually after about 3 weeks vs untreated controls; for pest or weed control at 320 g/ha: Tripleurospermum inodorum, 504 h, read-out: Pre-emergence effect at 320 g/ha against MATIN in %
Excerpt: as §3, §4, §2

DIGSA = assay: as above; type: in vivo, Digitaria sanguinalis; conditions: scored visually after about 3 weeks vs untreated controls
Excerpt: as §3, §4, §2

ECHCG = assay: as above; type: in vivo, Echinochloa crus-galli; conditions: scored visually after about 3 weeks vs untreated controls; for pest or weed control at 320 g/ha: Echinochloa crus-galli, 504 h, read-out: Pre-emergence effect at 320 g/ha against ECHCG in %
Excerpt: as §3, §4, §2

VERPE = assay: as above; type: in vivo, Veronica persica; conditions: scored visually after about 3 weeks vs untreated controls
Excerpt: as §3, §4, §2

Row | SMILES | percent crop injury (phytotoxicity) to wheat, post-emergence at 20 g/ha (TRZAS) | plant injury at 20 g/ha (ZEAMX [1]) | plant injury at 80 g/ha (ZEAMX [1]) | Pre-emergence effect at 80 g/ha against VIOTR in % (VIOTR) | Pre-emergence effect at 320 g/ha against VIOTR in % (VIOTR) | Pre-emergence effect at 80 g/ha against POLCO in % (POLCO) | Pre-emergence effect at 320 g/ha against ABUTH in % (ABUTH) | Pre-emergence effect at 320 g/ha against LOLRI in % (LOLRI) | Pre-emergence effect at 320 g/ha against PHBPU in % (PHBPU) | Pre-emergence effect at 80 g/ha against AVEFA in % (AVEFA) | Pre-emergence effect at 320 g/ha against AVEFA in % (AVEFA) | Pre-emergence effect at 80 g/ha against AMARE in % (AMARE) | Pre-emergence effect at 320 g/ha against ALOMY in % (ALOMY) | Pre-emergence effect at 320 g/ha against DIGSA in % (DIGSA) | Pre-emergence effect at 80 g/ha against ECHCG in % (ECHCG) | pest or weed control at 320 g/ha (SETVI; 320 g/ha) | pest or weed control at 320 g/ha (POLCO; 320 g/ha) | pest or weed control at 320 g/ha (AMARE; 320 g/ha) | pest or weed control at 320 g/ha (MATIN; 320 g/ha) | pest or weed control at 320 g/ha (ECHCG; 320 g/ha) | further results
1 | CCOC(Oc1nn(-c2ccccc2F)c(-c2ccc(F)nc2)c1Br)C(=O)O (single isomer, unassigned) [Example I-65, (2R*)-{[4-Bromo-1-(2-fluorophenyl)-5-(6-fluoropyridin-3-yl)-1H-pyrazol-3-yl]oxy}(ethoxy)acetic acid] | 0% | 0% | 0% |  |  |  |  |  |  |  |  |  |  |  |  |  |  |  |  |  | plant injury at 320 g/ha (ZEAMX [1]): 0%; Post-emergence effect at 320 g/ha against BRSNW in % (BRSNW): 0%
2 | COC(=O)CCOC(=O)C(OC)Oc1nn(-c2ncccc2F)c(-c2cncc(F)c2)c1C1CC1 (single isomer, unassigned) [Example I-76] |  |  |  | 100% | 100% | 90% | 90% | 100% | 90% | 90% | 100% | 100% | 90% | 90% | 90% |  |  |  |  |  | Pre-emergence effect at 20 g/ha against KCHSC in % (KCHSC; 20 g/ha): 90%; Pre-emergence effect at 80 g/ha against KCHSC in % (KCHSC; 80 g/ha): 90%; Pre-emergence effect at 320 g/ha against KCHSC in % (KCHSC): 100%; Pre-emergence effect at 80 g/ha against SETVI in % (SETVI; 80 g/ha): 90%; Pre-emergence effect at 320 g/ha against SETVI in % (SETVI; 320 g/ha): 100%; Pre-emergence effect at 320 g/ha against POLCO in % (POLCO; 320 g/ha): 90%; Pre-emergence effect at 80 g/ha against ABUTH in % (ABUTH; 80 g/ha): 90%; Pre-emergence effect at 20 g/ha against ZEAMX in % (ZEAMX [2]): 20%; Pre-emergence effect at 80 g/ha against LOLRI in % (LOLRI): 90%; Pre-emergence effect at 20 g/ha against AMARE in % (AMARE): 80%; Pre-emergence effect at 320 g/ha against AMARE in % (AMARE; 320 g/ha): 100%; Pre-emergence effect at 80 g/ha against ALOMY in % (ALOMY): 90%; Pre-emergence effect at 320 g/ha against MATIN in % (MATIN; 320 g/ha): 90%; Pre-emergence effect at 80 g/ha against DIGSA in % (DIGSA; 80 g/ha): 80%; Pre-emergence effect at 320 g/ha against ECHCG in % (ECHCG; 320 g/ha): 100%
3 | COC(=O)C(OC)Oc1nn(-c2cc(F)ccc2F)c(-c2cncc(F)c2)c1C1CC1 (centres unmarked) [Example I-31, Methyl {[4-cyclopropyl-1-(2,5-difluorophenyl)-5-(5-fluoropyridin-3-yl)-1H-pyrazol-3-yl]oxy}(methoxy)acetate] |  |  |  | 100% | 100% | 100% | 80% | 100% | 90% | 90% | 90% | 100% | 100% | 90% | 90% | 90% | 100% | 100% | 100% | 100% | Pre-emergence effect at 20 g/ha against POLCO in % (POLCO): 80%; Pre-emergence effect at 320 g/ha against VERPE in % (VERPE): 90%; Pre-emergence effect at 80 g/ha against PHBPU in % (PHBPU): 90%; Pre-emergence effect at 20 g/ha against AMARE in % (AMARE): 80%; Pre-emergence effect at 80 g/ha against MATIN in % (MATIN): 90%
4 | COC(Oc1nn(-c2cc(F)ccc2F)c(-c2cncc(F)c2)c1C1CC1)C(=O)O (centres unmarked) [Example I-34] |  |  |  | 100% | 100% | 90% | 90% | 100% | 90% | 90% | 100% | 100% | 100% | 80% | 90% | 90% | 90% | 100% | 90% | 100% | Pre-emergence effect at 20 g/ha against VIOTR in % (VIOTR; 20 g/ha): 80%; Pre-emergence effect at 20 g/ha against POLCO in % (POLCO): 90%; Pre-emergence effect at 80 g/ha against LOLRI in % (LOLRI): 90%; Pre-emergence effect at 320 g/ha against VERPE in % (VERPE): 80%; Pre-emergence effect at 80 g/ha against PHBPU in % (PHBPU): 90%; Pre-emergence effect at 20 g/ha against AVEFA in % (AVEFA; 20 g/ha): 80%; Pre-emergence effect at 80 g/ha against ALOMY in % (ALOMY): 90%; Pre-emergence effect at 80 g/ha against MATIN in % (MATIN): 90%
5 | COC(Oc1nn(-c2ncccc2F)c(-c2ccc(F)nc2)c1Br)C(=O)O (centres unmarked) [Example I-45] | 0% | 0% | 0% |  |  |  |  |  |  |  |  |  |  |  |  |  |  |  |  |  | plant injury at 320 g/ha (ZEAMX [1]): 0%; Post-emergence effect at 320 g/ha against BRSNW in % (BRSNW): 0%
6 | COC(=O)C(OC)Oc1nn(-c2ccccc2F)c(-c2ccc(F)nc2)c1I (centres unmarked) [Example I-49] |  |  |  |  | 90% |  |  | 90% |  |  | 90% | 90% | 90% | 100% |  | 100% | 80% | 100% | 90% | 90% | Pre-emergence effect at 320 g/ha against KCHSC in % (KCHSC): 100%; Pre-emergence effect at 20 g/ha against ZEAMX in % (ZEAMX [2]): 0%; Pre-emergence effect at 80 g/ha against ZEAMX in % (ZEAMX [2]; 80 g/ha): 0%
